15 compounds from patent US6528274B1, “Method for the production of sialylated oligosaccharides” (priority 1998, dated 2003) can be followed below.

Assay [1] concerns the target viral α2,3-sialyltransferase (Myxoma virus, UniProt Q9YJT3). Format: biochemical. As to conditions: LacNAc-O-gr = 100; for Relative Rate (2.7 mM): acceptor 2.7 mM, relative rate of sialic acid transfer, 37° C., pH 6.1. On the procedure: Acceptor (54 nmol), CMP-NANA (40 nmol), and CMP-^3H-NANA (150,000-180,000 dpm) were added to a mixture of cell lysate (16 μL), water (3 μL) and 1 μL of assay buffer (250 mM MES, 0.5% Triton CF54, pH 7.0) in a 0.5 mL microfuge tube. Reaction mixtures were incubated at 37° C., diluted with water to 200 μL and loaded onto a C18 Sep-Pak reverse-phase cartridge which had been pre-equilibrated with 20 mL of MeOH and 20 mL of water. The cartridge was washed with 50 mL of water and the product eluted with 4 mL of MeOH into a scintillation vial. The radioactivity of the MeOH eluates were quantitated by liquid scintillation in 10 mL of EcoLite (+) scintillation cocktail (ICN, Montreal, Quebec, Canada) in a Beckman liquid scintillation counter (LS1801).
Acceptor (54 nmol), CMP-NANA (40 nmol), and CMP-^3H-NANA (150,000-180,000 dpm) were added to a mixture of cell lysate (16 μL), water (3 μL) and assay buffer (250 mM MES, 0.5% Triton CF54, pH 6.1) in a 0.5 mL microfuge tube.

The subject of assay [2] is myxoma viral α2,3-sialyl transferase. Nature of the assay: Transfer of sialic acid (CMP-3H-NANA) to Lewis a and Lewis x oligosaccharide acceptors by viral cell lysate, pH 7.0. Type of assay: biochemical, myxoma virus. As to conditions: acceptor 54 nmol, 37° C., duplicate experiments. As to the method:
The myxoma viral α2,3-sialyl transferase cell lysate was prepared by a method similar to that set forth in International Patent Application Publication No. WO97/18302^65, which is incorporated herein by reference.
Ten T180 flasks of confluent layers of European rabbit kidney cell (RK13) cells were infected with Brazilian myxoma virus strain, Lausanne (Lu) (ATCC VR-115) isolated Campinas, Brazil, 1949 and Uriarra (Ur) isolated Australian Capital Territory, 1953 (a derivative of Moses strain (ATCC VR-116)). The cells were kept at 37° C. for 24 hours. Twenty-four hours post infection, the cells were detached by scraping and washed with PBS. Cell lysates were prepared by suspension in 20 mL of extraction buffer (50 mM MES, pH 6.1, 0.5% Triton-X100, 100 mM NaCl, 1.5 mM MgCl2, 0.1 mM PMSF, […] aprotinin) at 4° C., for 45 minutes. The lysate was clarified by centrifugation at 2,000 g at 4° C. for 15 minutes. […]
Acceptor (54 nmol), CMP-NANA (40 nmol), and CMP-^3H-NANA (150,000-180,000 dpm) were added to a mixture of cell lysate (16 μL), water (3 μL) and 1 μL of assay buffer (250 mM MES, 0.5% Triton CF54, pH 7.0) in a 0.5 mL microfuge tube. […] The radioactivity of the MeOH eluates were quantitated by liquid scintillation in 10 mL of EcoLite (+) scintillation cocktail (ICN, Montreal, Quebec, Canada) in a Beckman liquid scintillation counter (LS1801). […]

The structures appear in SMILES notation. Where only a bound is given, the exact number is not on record here.

Take `CC(=O)N[C@H]1C(O)O[C@H](CO)[C@@H](O[C@@H]2O[C@H](CO)[C@H](O)[C@H](O)[C@H]2O)[C@@H]1O` (stereo partly drawn) [LacNAc-OH]: the “Relative Rate (2.7 mM)” value in assay [1] is recorded as 171.

For `COC(=O)CCCCCCCCO[C@@H]1O[C@H](CO)[C@@H](O[C@@H]2O[C@H](CO)[C@H](O)[C@H](O)[C@H]2O)[C@H](O)[C@H]1NC(C)=O` [LacNAc—O-gr], in assay [1], the “Relative Vmax” value is listed as 100 and the “Relative Rate (2.7 mM)” value came to 100.

For `OC[C@H]1O[C@H](Oc2ccccc2)[C@H](O)[C@@H](O)[C@H]1O` [Gal-O-phenyl], the “Relative Rate (2.7 mM)” value in assay [1] is <1.

Take `COC(=O)CCCCCCCCOC1OC(CO)C(O)C(O)C1NC(C)=O` (stereo not drawn) [GlcNAc-O-gr]: the “Relative Rate (2.7 mM)” value in assay [1] was <1.

As to `COC(=O)CCCCCCCCO[C@@H]1O[C@H](CO)[C@@H](O[C@@H]2O[C@@H](C)[C@@H](O)[C@@H](O)[C@@H]2O)[C@H](O[C@@H]2O[C@H](CO)[C@H](O)[C@H](O)[C@H]2O)[C@H]1NC(C)=O` [Le^a-gr, 8-methoxycarbonyloctyl β-D-galactopyranosyl-(1→3) [α-L-fucopyranosyl-(1→4)]-β-D-2-acetamide-2-deoxy-glucopyranoside], the “dpm (radioactive transfer to acceptor)” value in assay [2] (Incubation time 170 min., total CMP-NANA 176174) was 4161/4045. In assay [1], the “Relative Vmax” value amounted to 42 and the “Relative Rate (2.7 mM)” value is 50.

For the compound `CCCCCCCCO[C@@H]1O[C@H](CO)[C@@H](O[C@@H]2O[C@H](CO)[C@H](O)[C@](C)(O)[C@H]2O)[C@H](O)[C@H]1O` [3′-C-methyl-lactose-octyl], the “Relative Rate (2.7 mM)” value in assay [1] is 4.1.

For `COC(=O)CCCCCCCCO[C@@H]1O[C@H](CO)[C@@H](O)[C@H](O[C@@H]2O[C@H](CO)[C@H](O)[C@H](O)[C@H]2O)[C@H]1NC(C)=O` [Le^c-O-gr], in assay [1], the “Relative Vmax” value came to 90 and the “Relative Rate (2.7 mM)” value is 79.

Turning to `CCCCCCCCO[C@@H]1O[C@H](CO)[C@@H](O[C@@H]2O[C@H](CO)[C@](C)(O)[C@H](O)[C@H]2O)[C@H](O)[C@H]1O` [4′-C-methyl-lactose-octyl], in assay [1], the “Relative Rate (2.7 mM)” value is on record as 20.

On to `COC(=O)CCCCCCCCO[C@@H]1O[C@H](CO)[C@@H](O[C@@H]2O[C@H](CO)[C@H](O[C@H]3O[C@H](CO)[C@H](O)[C@H](O)[C@H]3O)[C@H](O)[C@H]2O)[C@H](O)[C@H]1O` [Galα(1→4)-lactose-O-gr], for which, in assay [1], the “Relative Vmax” value was 17 and the “Relative Rate (2.7 mM)” value worked out at 12.

Take `COC(=O)CCCCCCCCO[C@@H]1O[C@H](CO)[C@@H](O[C@@H]2O[C@H](CO)[C@H](O)[C@H](O)[C@H]2O)[C@H](O[C@@H]2O[C@@H](C)[C@@H](O)[C@@H](O)[C@@H]2O)[C@H]1NC(C)=O` [Le^x-gr, 8-methoxycarbonyloctyl α-L-fucopyranosyl-(1→3)-[β-D-galactopyranosyl-(1→4)]-β-D-2-acetamide-2-deoxy-glucopyranoside]: the “dpm (radioactive transfer to acceptor)” value in assay [2] (Incubation time 90 min., total CMP-NANA 152644) was 1330/1130. In assay [1], the “Relative Vmax” value is 30 and the “Relative Rate (2.7 mM)” value was 21.

On to `COC(=O)CCCCCCCCO[C@@H]1O[C@H](CO)[C@@H](O[C@@H]2O[C@H](CO)[C@H](O)[C@H](O)[C@H]2O)[C@H](O)[C@H]1O` [Lactose-O-gr], for which, in assay [1], the “Relative Vmax” value stood at 112 and the “Relative Rate (2.7 mM)” value is listed as 90.

With `COC(=O)CCCCCCCCO[C@H]1O[C@H](CO)[C@H](O)[C@H](O[C@@H]2O[C@H](CO)[C@H](O)[C@H](O)[C@H]2O)[C@H]1NC(C)=O` [T-disaccharide-O-gr], in assay [1], the “Relative Vmax” value is recorded as 51 and the “Relative Rate (2.7 mM)” value turned out to be 64.

For the compound `CCCCCCCCO[C@@H]1O[C@H](CO)[C@@H](O)[C@H](O)[C@H]1O` [Glc-O-octyl], in assay [1], the “Relative Rate (2.7 mM)” value is <1.

On to `CCCCCCCCO[C@@H]1O[C@H](CO)[C@@H](O[C@@H]2O[C@H](C(C)(C)O)[C@H](O)[C@H](O)[C@H]2O)[C@H](O)[C@H]1NC(C)=O` [6′,6′-C-dimethyl-LacNAc-O-octyl], for which the “Relative Rate (2.7 mM)” value in assay [1] turned out to be 17.

Take `COC(=O)CCCCCCCCOC1OC(CO)C(OC2OC(CO)C(O)C(OC3OC(CO)C(O)C(O)C3O)C2O)C(O)C1NC(C)=O` (stereo not drawn) [Galα(1→3)-lacNAc-O-gr]: the “Relative Rate (2.7 mM)” value in assay [1] stood at 18.
